From US4656247A, “Effective hormonal peptides: D-3-QA1 6-LHRH” (Board of Regents, The University of Texas System, priority 1985, dated 1987)

How the values were obtained:
[1] = tested on: pituitary cells from 21 day old rats; assay: In vitro pituitary incubate assay (release of LH and FSH); type: cell-based, rat
Protocol: The data in Tables IV and V are from the in vitro assay of the peptides with the pituitary incubate. This assay measures the release of LH and FSH in an in vitro system with pituitary cells from 21 day old rats. See, Bowers, C. Y. et al. on the inhibitory effects of leutinizing hormone releasing hormone analogs. Endocrinology, 106: 674 (1980).

21 day old female rats = assay: In vivo assay in rats for release of LH and FSH; parameters: species or system rat; conditions: for Serum LH ng/ml ± SEM / Serum FFSH ng/ml ± SEM: Table VI, sampling time not given; for LH ± SEM ng/ml serum / FSH ± SEM ng/ml serum: Table XI, mean 5-6; for LH ng/ml Serum ± SEM: Table VII
Protocol: In vivo rat assay performed by a modification of the method of Bowers, C. Y. et al. Endocrinology, 106, 674 (1980). 21 day old female rats were injected sc with saline or peptide. Blood samples for the RIAs of LH and FSH were collected at +15, +60, +120, or +180 minutes. (Table VI-XI).

[2] = Peptides tested biologically (summary statement); conditions: when tested biologically
[3] = tested on: advanced prostatic carcinoma; conditions: subcutaneous, daily; cited from earlier work
men = conditions: chronic administration; cited from earlier work
[4] = 150 ng sc, first column (+ 2 hrs as in upper part)
[5] = 150 ng sc, second column (+3 hrs as in upper part)

| Compound | LH ± SEM ng/ml serum (21 day old female rats; 150 ng sc, + 2 hrs) | LH ± SEM ng/ml serum (21 day old female rats; 150 ng sc, +3 hrs) [ng/ml serum] | FSH ± SEM ng/ml serum (21 day old female rats; [4]) [ng/ml serum] | FSH ± SEM ng/ml serum (21 day old female rats; [5]) [ng/ml serum] | LH ng/ml Serum ± SEM (21 day old female rats; ± 15 min) [ng/mL] | LH ng/ml Serum ± SEM (21 day old female rats; ± 60 min) [ng/mL] | other results |
| --- | --- | --- | --- | --- | --- | --- | --- |
| CC(C)C[C@H](NC(=O)[C@@H](Cc1cccnc1)NC(=O)[C@H](Cc1ccc(O)cc1)NC(=O)[C@H](CO)NC(=O)[C@H](Cc1c[nH]c2ccccc12)NC(=O)[C@H](Cc1c[nH]cn1)NC(=O)[C@@H]1CCC(=O)N1)C(=O)N[C@@H](CCCNC(=N)N)C(=O)N1CCC[C@H]1C(=O)NCC(N)=O [D-Pal^6 -LHRH, pyroGlu-His-Trp-Ser-Tyr-D-3-Pal-Leu-Arg-Pro-GlyNH2] | 144 ± 27 ng/ml serum | 38 ± 6.3 | 2362 ± 293 | 1617 ± 143 |  |  | activity for the release of FSH (D-Pal^6 vs D-Qal^6, words) ([1]; at 0.1 ng, Table IV): same essential equivalents; activity for the release of LH (D-Pal^6 vs D-Qal^6, words) ([1]; at 0.1 ng, Table IV): essentially equivalent in activity; potency compared with D-Trp^6 -LHRH, inferred via D-Qal^6 -LHRH ([1]; inference from Table IV and comparable assays): essentially equipotent; Serum LH ng/ml ± SEM (21 day old female rats; 5 ng/rat sc): 7 ± 1 ng/mL; LH ± SEM ng/ml serum (21 day old female rats; 50 ng sc, + 2 hrs): 108 ± 17 ng/ml serum; LH ± SEM ng/ml serum (21 day old female rats; 50 ng sc, +3 hrs): 20 ± 2.3 ng/ml serum; FSH ± SEM ng/ml serum (21 day old female rats; 50 ng sc, first column (+ 2 hrs as in upper part)): 1727 ± 222 ng/ml serum; FSH ± SEM ng/ml serum (21 day old female rats; 50 ng sc, second column (+3 hrs as in upper part)): 1312 ± 163 ng/ml serum; release of LH (21 day old female rats; dosage of 5 ng): significantly released LH; LH released relative to LHRH, corrected for the level of LH before addition of the peptides (21 day old female rats; dosage of 50 ng): ~50 times; potency compared with LHRH [2]: significantly more potent than LHRH itself |
| CC(C)C[C@H](NC(=O)[C@@H](Cc1c[nH]c2ccccc12)NC(=O)[C@H](Cc1ccc(O)cc1)NC(=O)[C@H](CO)NC(=O)[C@H](Cc1c[nH]c2ccccc12)NC(=O)[C@H](Cc1c[nH]cn1)NC(=O)[C@@H]1CCC(=O)N1)C(=O)N[C@@H](CCCNC(=N)N)C(=O)N1CCC[C@H]1C(=O)NCC(N)=O [D-Trp^6 -LHRH, pyroGluHis-Trp-Ser-Tyr-D-Trp-Leu-Arg-Pro-Gly-NH2] | 230 ± 41 ng/ml serum | 117 ± 9 | 2332 ± 388 | 2065 ± 151 | 51 ± 10 | 259 ± 34 | LH ng/ml Serum ± SEM (21 day old female rats; 10 mg/rat sc, ± 60 min): 31 ± 6 ng/mL; clinical effect in patients with more advanced prostatic disease [3]: pain from bone metastases was relieved; clinical effect in patients with urinary obstruction [3]: noticeable clinical improvement; effect on Leydig cell function and serum steroid levels (men): suppression of Leydig cell function and decreases in serum levels of testosterone, dihydrotestosterone and estradiol |
| CCNC(=O)[C@@H]1CCCN1C(=O)[C@H](CCCNC(=N)N)NC(=O)[C@H](CC(C)C)NC(=O)[C@@H](Cc1c[nH]c2ccccc12)NC(=O)[C@H](Cc1ccc(O)cc1)NC(=O)[C@H](CO)NC(=O)[C@H](Cc1c[nH]c2ccccc12)NC(=O)[C@H](Cc1c[nH]cn1)NC(=O)[C@@H]1CCC(=O)N1 [D-Trp^6 Pro^9 Net-LHRH, pyroGluHis-Trp-Ser-Tyr-D-Trp-Leu-Arg-Pro-EA**] | 184 ± 29 ng/ml serum | 103 ± 9 | 2260 ± 294 | 1763 ± 148 | 59 ± 10 | 228 ± 41 |  |
| CCNC(=O)[C@@H]1CCCN1C(=O)[C@H](CCCNC(=N)N)NC(=O)[C@H](CC(C)C)NC(=O)[C@@H](Cc1cccnc1)NC(=O)[C@H](Cc1ccc(O)cc1)NC(=O)[C@H](CO)NC(=O)[C@H](Cc1c[nH]c2ccccc12)NC(=O)[C@H](Cc1c[nH]cn1)NC(=O)[C@@H]1CCC(=O)N1 [Peptide 21436, pryoGlu-His-Trp-Ser-Tyr-D-3-Pal-Leu-Arg-Pro-NHC2 H5] | 237 ± 52 ng/ml serum | 106 ± 13 | 2415 ± 361 | 2205 ± 298 |  |  |  |
| LHRH: leutinizing hormone releasing hormone, the peptide hormone which exists naturally in the hypothalamus | .18 ± 0.07 ng/ml serum | 0.66 ± 0.46 | 337 ± 20 | 487 ± 72 | 49 ± 10 | 5.5 ± 0.9 | Serum FFSH ng/ml ± SEM (21 day old female rats; 15 ng/rat sc): 475 ± 43 ng/mL; Serum LH ng/ml ± SEM (21 day old female rats; 15 ng/rat sc): 1.3 ± 0.2 ng/mL; Serum FFSH ng/ml ± SEM (21 day old female rats; 50 ng/rat sc): 572 ± 68 ng/mL; Serum LH ng/ml ± SEM (21 day old female rats; 50 ng/rat sc): 3.2 ± 0.3 ng/mL; Serum FFSH ng/ml ± SEM (21 day old female rats; 150 ng/rat sc): 839 ± 73 ng/mL; Serum LH ng/ml ± SEM (21 day old female rats; 150 ng/rat sc): 12 ± 3 ng/mL; release of LH (21 day old female rats; at 15 ng): inactive |
